The source of these data is PMC7137441, “Synthesis, biological evaluation and molecular docking analysis of vaniline–benzylidenehydrazine hybrids as potent tyrosinase inhibitors” (BMC Chemistry, 2020).

By IC50 is commonly meant the concentration at which inhibition is half-maximal. In general, melting point refers to the temperature, or range, at which the solid turns liquid.

Each structure is given as a SMILES string. Entries after “also recorded” stand apart in the source; their conditions may differ. Read-outs that look alike come from different tables or passages of the source.

The target in data set [1] is T1, mushroom tyrosinase (Agaricus bisporus, UniProt C7FF04). As to the kind of experiment: Mushroom tyrosinase inhibition assay (L-DOPA as substrate). Type of data set: biochemical. As to the method: All test samples were first dissolved in DMSO at 50 mM and diluted to the required concentrations. First, […] of tyrosinase (0.5 mg ml) was mixed with 160 μl of 50 mM phosphate buffer (pH = 6.8) in 96-well microplates and then 10 μl of different concentration of the test sample was added. […] DMSO without test compounds and kojic acid were used as the control and positive control respectively. The tyrosinase activity without inhibitor was defined as 100%. Each concentration was analyzed in three independent experiments run in triplicate.
T1 sequence (C7FF04 1-392): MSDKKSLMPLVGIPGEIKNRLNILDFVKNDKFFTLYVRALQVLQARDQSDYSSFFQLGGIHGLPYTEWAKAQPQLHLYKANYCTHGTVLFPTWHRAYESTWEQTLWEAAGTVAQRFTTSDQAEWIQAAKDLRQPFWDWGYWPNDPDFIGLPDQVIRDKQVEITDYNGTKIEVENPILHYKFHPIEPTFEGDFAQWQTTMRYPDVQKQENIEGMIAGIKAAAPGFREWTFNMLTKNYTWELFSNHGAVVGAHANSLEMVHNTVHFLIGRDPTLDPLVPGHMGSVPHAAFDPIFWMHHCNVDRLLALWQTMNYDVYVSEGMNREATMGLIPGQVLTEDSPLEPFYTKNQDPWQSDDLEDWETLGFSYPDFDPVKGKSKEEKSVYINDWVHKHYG

Data set [2] concerns the target T1, mushroom tyrosinase. As to the kind of experiment: Kinetic study of tyrosinase inhibition (Lineweaver-Burk plot, L-DOPA as substrate). The note with it: for Vm: L-DOPA 0.25-1 mM. The class given is biochemical.
Method: The inhibition constants, Ki, and Vm for tyrosinase inhibitors were determined by fitting the kinetic data to a competitive, noncompetitive, or mixed inhibition model by nonlinear regression analysis using GraphPad Prism.
To determine the inhibition kinetics of vaniline-benzylidenehydrazine a series of experiments were performed. Different concentrations of the 4i (0, 10 and 25 µM) was chosen to get a series of straight lines. Pre-incubation and measurement time were the same as discussed in mushroom tyrosinase inhibition assay protocol. The maximal velocity (Vmax) and the Michaelis constant (Km) of the tyrosinase activity were determined by the Line weaver Burk plot at various concentrations of L-DOPA (0.25, 0.5, 0.75 and 1 mM) as a substrate. The inhibition type of the enzyme was assayed by Line weaver Burk plots of inverse of velocities (1/V) versus inverse of substrate concentrations 1/[S] mM.
Where [3] appears, read: L-DOPA as the substrate, mean ± SEM of three to five independent experiments, read-out: IC50 against tyrosinase enzyme.

Consider `COc1cc(C(=O)N/N=C/c2ccc(O)cc2O)ccc1O` [Compound 4a, (E)-Nʹ-(2,4-dihydroxybenzylidene)-4-hydroxy-3-methoxybenzohydrazide], for which the melting point was 243 °C. For the same compound, in data set [1] (setting [3]), the IC50 was 37.1 ± 1.02 µM.
For the compound `COc1cc(C(=O)N/N=C/c2ccc(O)cc2)ccc1O` [Compound 4b, (E)-4-hydroxy-Nʹ-(4-hydroxybenzylidene)-3-methoxybenzohydrazide], the melting point was determined as 256 °C. In addition, the IC50 in data set [1] (setting [3]) stood at 15.2 ± 1.34 µM.
On the same counts, the results for `COc1ccc(/C=N/NC(=O)c2ccc(O)c(OC)c2)cc1` [Compound 4c, (E)-4-hydroxy-3-methoxy-Nʹ-(4-methoxybenzylidene)benzohydrazide] are 110 °C and 35.6 ± 2.8 µM.
For `COc1cc(C(=O)N/N=C/c2ccc(OC)c(OC)c2)ccc1O` [Compound 4d, (E)-Nʹ-(3,4-dimethoxybenzylidene)-4-hydroxy-3-methoxy benzohydrazide] the same measures were 231 °C and 20.9 ± 2.09 µM.
For `COc1cc(C(=O)N/N=C/c2ccc(Br)cc2)ccc1O` [Compound 4e, (E)-Nʹ-(4-bromobenzylidene)-4-hydroxy-3-methoxybenzohydrazide] the same measures were 115 °C and 1.95 ± 2.34 µM.
In turn, `COc1cc(C(=O)N/N=C/c2ccc([N+](=O)[O-])cc2)ccc1O` [Compound 4f, (E)-4-hydroxy-3-methoxy-Nʹ-(4-nitrobenzylidene)benzohydrazide] returned a melting point of 195 °C. In addition, in data set [1] (setting [3]), the IC50 is 29.1 ± 0.89 µM.
On the same counts, the results for `COc1cc(C(=O)N/N=C/c2cc(OC)c(O)c(OC)c2)ccc1O` [Compound 4g, (E)-4-hydroxy-Nʹ-(4-hydroxy-3,5-dimethoxybenzylidene)-3-methoxy benzohydrazide] are 151 °C and 4.58 µM.
In the case of `COc1ccc(/C=N/NC(=O)c2ccc(O)c(OC)c2)cc1O` [Compound 4h, (E)-4-hydroxy-Nʹ-(3-hydroxy-4-methoxybenzylidene)-3-methoxybenzohydrazide], the melting point is 98 °C. Moreover, the IC50 in data set [1] (setting [3]) amounted to 10 ± 1.6 µM.
For the compound `CCOc1cc(/C=N/NC(=O)c2ccc(O)c(OC)c2)ccc1O` [Compound 4i, (E)-Nʹ-(3-ethoxy-4-hydroxybenzylidene)-4-hydroxy-3-methoxybenzohydrazide], inhibition in data set [1] was half-maximal at 1.58 µM (IC50). In addition, the Vm is 0.18 OD/Min in data set [2] (4i at 10 µM) and 0.17 OD/Min in data set [2] (4i at 25 µM). The Type of inhibition entry in data set [2] (Lineweaver-Burk plot, 4i at 0, 10 and 25 µM) is listed as “uncompetitive inhibition; also recorded: uncompetitive inhibitor”.
The compound `COc1cc(C(=O)N/N=C/c2ccccc2[N+](=O)[O-])ccc1O` [Compound 4j, (E)-4-hydroxy-3-methoxy-Nʹ-(2-nitrobenzylidene)benzohydrazide] yielded a melting point of 151 °C. Moreover, the IC50 in data set [1] (setting [3]) was found to be 17 ± 2.03 µM.
Regarding `COc1cc(C(=O)N/N=C/c2cccc([N+](=O)[O-])c2)ccc1O` [Compound 4k, (E)-4-hydroxy-3-methoxy-Nʹ-(3-nitrobenzylidene)benzohydrazide], the melting point came to 151 °C. Besides, the IC50 in data set [1] (setting [3]) worked out at 5.84 ± 1.9 µM.
